Measurements: ChEMBL document CHEMBL5724806, “Unraveling interindividual differences and functional consequences of gut microbial metabolism of immunosuppressants” (2024)

How the values were obtained:
Type in all cases: ADME
[1] = (§1) The drug is tested on the gut metagenome community of A-09 with ENA study accession number: PRJEB31790 for biotransformation under anaerobic condition. The drug concentrations were measured over 7 timepoints collected between 0 and 12 hours of incubation by liquid-chromatography-coupled mass spectrometry (LC–MS); set-up: dose 5 uM, timepoint 0, 0.75, 1.5, 3, 6, 9, 12 hours; conditions: 5 µM
[2] = as §1, with “A-08” for “A-09”, “microaerobic” for “anaerobic”; set-up: dose 5 uM, timepoint 0, 0.75, 1.5, 3, 6, 9, 12 hours; conditions: 5 µM
[3] = The drug is tested on Streptococcus anginosus strain: DSM20563 for biotransformation under microaerobic condition. The drug concentrations were measured over 6 timepoints collected between 0 and 12 hours of incubation by liquid-chromatography-coupled mass spectrometry (LC–MS); set-up: dose 5 uM, timepoint 0, 1.5, 3, 6, 9, 12 hours; conditions: 5 µM
[4] = The drug is tested on Ruminococcus gnavus strain: ATCC29149 for biotransformation under anaerobic condition. The drug concentrations were measured over 6 timepoints collected between 0 and 12 hours of incubation by liquid-chromatography-coupled mass spectrometry (LC–MS); set-up: dose 5 uM, timepoint 0, 1.5, 3, 6, 9, 12 hours; conditions: mediterraneibacter gnavus, 5 µM
[5] = The drug is tested on Lactobacillus gasseri strain: DSM20243 for biotransformation under anaerobic condition. The drug concentrations were measured over 6 timepoints collected between 0 and 12 hours of incubation by liquid-chromatography-coupled mass spectrometry (LC–MS); set-up: dose 5 uM, timepoint 0, 1.5, 3, 6, 9, 12 hours; conditions: 5 µM
[6] = The drug is tested on Bacteroides stercoris strain: HM 1036 for biotransformation under anaerobic condition. The drug concentrations were measured over 6 timepoints collected between 0 and 12 hours of incubation by liquid-chromatography-coupled mass spectrometry (LC–MS); set-up: dose 5 uM, timepoint 0, 1.5, 3, 6, 9, 12 hours; conditions: 5 µM
[7] = The drug is tested on Coprococcus comes strain: ATCC27758 for biotransformation under anaerobic condition. The drug concentrations were measured over 6 timepoints collected between 0 and 12 hours of incubation by liquid-chromatography-coupled mass spectrometry (LC–MS); set-up: dose 5 uM, timepoint 0, 1.5, 3, 6, 9, 12 hours; conditions: 5 µM
[8] = The drug is tested on Streptococcus mitis strain: DSM12643 for biotransformation under anaerobic condition. The drug concentrations were measured over 6 timepoints collected between 0 and 12 hours of incubation by liquid-chromatography-coupled mass spectrometry (LC–MS); set-up: dose 5 uM, timepoint 0, 1.5, 3, 6, 9, 12 hours; conditions: 5 µM
[9] = as §1, with “T-01” for “A-09”; set-up: dose 5 uM, timepoint 0, 0.75, 1.5, 3, 6, 9, 12 hours; conditions: 5 µM
[10] = The drug is tested on Lactobacillus paracasei strain: ATCC27092 for biotransformation under anaerobic condition. The drug concentrations were measured over 6 timepoints collected between 0 and 12 hours of incubation by liquid-chromatography-coupled mass spectrometry (LC–MS); set-up: dose 5 uM, timepoint 0, 1.5, 3, 6, 9, 12 hours; conditions: lacticaseibacillus paracasei, 5 µM
[11] = as §1, with “A-10” for “A-09”; set-up: dose 5 uM, timepoint 0, 0.75, 1.5, 3, 6, 9, 12 hours; conditions: 5 µM
[12] = The drug is tested on Collinsella aerofaciens strain: DSM3979 for biotransformation under anaerobic condition. The drug concentrations were measured over 6 timepoints collected between 0 and 12 hours of incubation by liquid-chromatography-coupled mass spectrometry (LC–MS); set-up: dose 5 uM, timepoint 0, 1.5, 3, 6, 9, 12 hours; conditions: 5 µM
[13] = as §1, with “A-07” for “A-09”; set-up: dose 5 uM, timepoint 0, 0.75, 1.5, 3, 6, 9, 12 hours; conditions: 5 µM
[14] = as §1, with “P-01” for “A-09”, “microaerobic” for “anaerobic”; set-up: dose 5 uM, timepoint 0, 0.75, 1.5, 3, 6, 9, 12 hours; conditions: 5 µM
[15] = The drug is tested on Eubacterium hallii strain: DSM3353 for biotransformation under anaerobic condition. The drug concentrations were measured over 6 timepoints collected between 0 and 12 hours of incubation by liquid-chromatography-coupled mass spectrometry (LC–MS); set-up: dose 5 uM, timepoint 0, 1.5, 3, 6, 9, 12 hours; conditions: anaerobutyricum hallii, 5 µM
[16] = The drug is tested on Lactobacillus reuteri strain: DSM20016 for biotransformation under microaerobic condition. The drug concentrations were measured over 6 timepoints collected between 0 and 12 hours of incubation by liquid-chromatography-coupled mass spectrometry (LC–MS); set-up: dose 5 uM, timepoint 0, 1.5, 3, 6, 9, 12 hours; conditions: limosilactobacillus reuteri, 5 µM
[17] = The drug is tested on Eubacterium eligens strain: DSM3376 for biotransformation under anaerobic condition. The drug concentrations were measured over 6 timepoints collected between 0 and 12 hours of incubation by liquid-chromatography-coupled mass spectrometry (LC–MS); set-up: dose 5 uM, timepoint 0, 1.5, 3, 6, 9, 12 hours; conditions: lachnospira eligens, 5 µM
[18] = as §1, with “A-05” for “A-09”, “microaerobic” for “anaerobic”; set-up: dose 5 uM, timepoint 0, 0.75, 1.5, 3, 6, 9, 12 hours; conditions: 5 µM
[19] = as §1, with “T-03” for “A-09”, “microaerobic” for “anaerobic”; set-up: dose 5 uM, timepoint 0, 0.75, 1.5, 3, 6, 9, 12 hours; conditions: 5 µM
[20] = as §1, with “A-03” for “A-09”; set-up: dose 5 uM, timepoint 0, 0.75, 1.5, 3, 6, 9, 12 hours; conditions: 5 µM
[21] = The drug is tested on Gemella morbillorum strain: DSM20572 for biotransformation under microaerobic condition. The drug concentrations were measured over 6 timepoints collected between 0 and 12 hours of incubation by liquid-chromatography-coupled mass spectrometry (LC–MS); set-up: dose 5 uM, timepoint 0, 1.5, 3, 6, 9, 12 hours; conditions: 5 µM
[22] = The drug is tested on Bifidobacterium longum strain: DSM20088 for biotransformation under anaerobic condition. The drug concentrations were measured over 6 timepoints collected between 0 and 12 hours of incubation by liquid-chromatography-coupled mass spectrometry (LC–MS); set-up: dose 5 uM, timepoint 0, 1.5, 3, 6, 9, 12 hours; conditions: 5 µM
[23] = as §1, with “P-04” for “A-09”, “microaerobic” for “anaerobic”; set-up: dose 5 uM, timepoint 0, 0.75, 1.5, 3, 6, 9, 12 hours; conditions: 5 µM
[24] = as §1, with “A-02” for “A-09”; set-up: dose 5 uM, timepoint 0, 0.75, 1.5, 3, 6, 9, 12 hours; conditions: 5 µM
[25] = The drug is tested on Lactobacillus gasseri strain: DSM20243 for biotransformation under microaerobic condition. The drug concentrations were measured over 6 timepoints collected between 0 and 12 hours of incubation by liquid-chromatography-coupled mass spectrometry (LC–MS); set-up: dose 5 uM, timepoint 0, 1.5, 3, 6, 9, 12 hours; conditions: 5 µM
[26] = The drug is tested on Parabacteroides distasonis strain: DSM20701 for biotransformation under anaerobic condition. The drug concentrations were measured over 6 timepoints collected between 0 and 12 hours of incubation by liquid-chromatography-coupled mass spectrometry (LC–MS); set-up: dose 5 uM, timepoint 0, 1.5, 3, 6, 9, 12 hours; conditions: 5 µM
[27] = The drug is tested on Bacteroides caccae strain: DSM19024 for biotransformation under anaerobic condition. The drug concentrations were measured over 6 timepoints collected between 0 and 12 hours of incubation by liquid-chromatography-coupled mass spectrometry (LC–MS); set-up: dose 5 uM, timepoint 0, 1.5, 3, 6, 9, 12 hours; conditions: 5 µM
[28] = The drug is tested on Streptococcus salivarius strain: DSM20560 for biotransformation under microaerobic condition. The drug concentrations were measured over 6 timepoints collected between 0 and 12 hours of incubation by liquid-chromatography-coupled mass spectrometry (LC–MS); set-up: dose 5 uM, timepoint 0, 1.5, 3, 6, 9, 12 hours; conditions: 5 µM
[29] = The drug is tested on Lactobacillus paracasei strain: ATCC27092 for biotransformation under microaerobic condition. The drug concentrations were measured over 6 timepoints collected between 0 and 12 hours of incubation by liquid-chromatography-coupled mass spectrometry (LC–MS); set-up: dose 5 uM, timepoint 0, 1.5, 3, 6, 9, 12 hours; conditions: lacticaseibacillus paracasei, 5 µM
[30] = The drug is tested on Streptococcus sanguinis strain: DSM20567 for biotransformation under anaerobic condition. The drug concentrations were measured over 6 timepoints collected between 0 and 12 hours of incubation by liquid-chromatography-coupled mass spectrometry (LC–MS); set-up: dose 5 uM, timepoint 0, 1.5, 3, 6, 9, 12 hours; conditions: 5 µM

| Bacterial Biotransformation [1] | Bacterial Biotransformation [2] | Bacterial Biotransformation [3] | Bacterial Biotransformation [4] | Bacterial Biotransformation [5] | Bacterial Biotransformation [6] | Bacterial Biotransformation [7] | Bacterial Biotransformation [8] | Bacterial Biotransformation [9] | Bacterial Biotransformation [10] | Bacterial Biotransformation [11] | Bacterial Biotransformation [12] | Bacterial Biotransformation [13] | Bacterial Biotransformation [14] | Bacterial Biotransformation [15] | Bacterial Biotransformation [16] | Bacterial Biotransformation [17] | Bacterial Biotransformation [18] | Bacterial Biotransformation [19] | Bacterial Biotransformation [20] | Structure (SMILES) | further results |
| --- | --- | --- | --- | --- | --- | --- | --- | --- | --- | --- | --- | --- | --- | --- | --- | --- | --- | --- | --- | --- | --- |
| Compound metabolized | Compound metabolized | Compound NOT metabolized | Compound NOT metabolized | Compound NOT metabolized | Compound NOT metabolized | Compound metabolized | Compound NOT metabolized | Compound NOT metabolized | Compound NOT metabolized | Compound metabolized | Compound metabolized | Compound metabolized | Compound NOT metabolized | Compound metabolized | Compound NOT metabolized | Compound NOT metabolized | Compound metabolized | Compound NOT metabolized | Compound metabolized | CO[C@H]1C[C@@H]2CC[C@@H](C)[C@@](O)(O2)C(=O)C(=O)N2CCCC[C@H]2C(=O)O[C@H]([C@H](C)C[C@@H]2CC[C@@H](OCCO)[C@H](OC)C2)CC(=O)[C@H](C)/C=C(\C)[C@@H](O)[C@@H](OC)C(=O)[C@H](C)C[C@H](C)/C=C/C=C/C=C/1C [EVEROLIMUS] | Bacterial Biotransformation [21]: Compound NOT metabolized; Bacterial Biotransformation [22]: Compound NOT metabolized; Bacterial Biotransformation [23]: Compound NOT metabolized; Bacterial Biotransformation [24]: Compound metabolized; Bacterial Biotransformation [25]: Compound NOT metabolized; Bacterial Biotransformation [26]: Compound NOT metabolized; Bacterial Biotransformation [27]: Compound NOT metabolized; Bacterial Biotransformation [28]: Compound NOT metabolized; Bacterial Biotransformation [29]: Compound NOT metabolized; Bacterial Biotransformation [30]: Compound NOT metabolized |
| Compound NOT metabolized | Compound NOT metabolized | Compound NOT metabolized | Compound NOT metabolized | Compound NOT metabolized | Compound NOT metabolized | Compound NOT metabolized | Compound NOT metabolized | Compound NOT metabolized | Compound NOT metabolized | Compound NOT metabolized | Compound NOT metabolized | Compound NOT metabolized | Compound NOT metabolized | Compound NOT metabolized | Compound NOT metabolized | Compound NOT metabolized | Compound NOT metabolized | Compound NOT metabolized | Compound NOT metabolized | CCOc1nc2cccc(C(=O)O)c2n1Cc1ccc(-c2ccccc2-c2nnn[nH]2)cc1 | Bacterial Biotransformation [21]: Compound NOT metabolized; Bacterial Biotransformation [22]: Compound NOT metabolized; Bacterial Biotransformation [23]: Compound NOT metabolized; Bacterial Biotransformation [24]: Compound NOT metabolized; Bacterial Biotransformation [25]: Compound NOT metabolized; Bacterial Biotransformation [26]: Compound NOT metabolized; Bacterial Biotransformation [27]: Compound NOT metabolized; Bacterial Biotransformation [28]: Compound NOT metabolized; Bacterial Biotransformation [29]: Compound NOT metabolized; Bacterial Biotransformation [30]: Compound NOT metabolized |
| Compound metabolized | Compound metabolized | Compound NOT metabolized | Compound NOT metabolized | Compound NOT metabolized | Compound NOT metabolized | Compound metabolized | Compound NOT metabolized | Compound NOT metabolized | Compound NOT metabolized | Compound metabolized | Compound NOT metabolized | Compound metabolized | Compound NOT metabolized | Compound metabolized | Compound NOT metabolized | Compound NOT metabolized | Compound NOT metabolized | Compound NOT metabolized | Compound metabolized | CN(Cc1cnc2nc(N)nc(N)c2n1)c1ccc(C(=O)N[C@@H](CCC(=O)O)C(=O)O)cc1 [METHOTREXATE] | Bacterial Biotransformation [21]: Compound NOT metabolized; Bacterial Biotransformation [22]: Compound NOT metabolized; Bacterial Biotransformation [23]: Compound NOT metabolized; Bacterial Biotransformation [24]: Compound metabolized; Bacterial Biotransformation [25]: Compound NOT metabolized; Bacterial Biotransformation [26]: Compound NOT metabolized; Bacterial Biotransformation [27]: Compound NOT metabolized; Bacterial Biotransformation [28]: Compound NOT metabolized; Bacterial Biotransformation [29]: Compound NOT metabolized; Bacterial Biotransformation [30]: Compound NOT metabolized |
